The target in one assay is T1, K-Ras G12C (Homo sapiens, UniProt P01116, G12C).
T1 construct: This protein contained 188 amino acids in total, including an N-terminal 6-Histidine tag; made in house; host or cells: E. coli BL21
The assay can be described thus: CAF assay (% CAF; method in Example 7, not in this part). In kind it is binding. The settings on record: 10 uM compound, 1 h incubation.
As to `C=CC(=O)N1CCN(c2nc(=O)n3c4c(c(-c5ccc(F)cc5)c(Cl)cc24)SC[C@@H]3CN2CCn3c(nnc3C(F)(F)F)C2)[C@@H](C)C1` [Example 444, (S)-7-((S)-4-acryloyl-2-methylpiperazin-1-yl)-9-chloro-10-(4-fluorophenyl)-3-((3-(trifluoromethyl)-5,6-dihydro-[1,2,4]triazolo[4,3-a]pyrazin-7(8H)-yl)methyl)-2H-[1,4]thiazino[2,3,4-ij]quinazolin-5(3H)-one], the “% CAF @ 10 uM, 1h” value was found to be 24.1%.
Still for that read-out and setting: with `C=CC(=O)N1CCN(c2nc(=O)n3c4c(c(-c5cc(F)c(F)cc5F)c(Cl)cc24)SCC3)[C@@H](C)C1` [Example 409, 7-((S)-4-acryloyl-2-methylpiperazin-1-yl)-9-chloro-10-(2,4,5-trifluorophenyl)-2,3-dihydro-5H-[1,4]thiazino[2,3,4-ij]quinazolin-5-one] the figure was 94%; with `C=CC(=O)N1[C@H](C)CN(c2nc(=O)n3c4c(c(-c5cc(Cl)c(F)cc5F)c(C(F)(F)F)cc24)SC[C@@H]3COC)C[C@@H]1C` (atropisomer, axis not shown) [Example 564, (3S,10S)-7-((3S,5R)-4-acryloyl-3,5-dimethylpiperazin-1-yl)-10-(5-chloro-2,4-difluorophenyl)-3-(methoxymethyl)-9-(trifluoromethyl)-2,3-dihydro-5H-[1,4]thiazino[2,3,4-ij]quinazolin-5-one], 80.8%; with `O=C1CC2CN(c3nc(=O)n4c5c(c(-c6ccc(F)cc6F)c(C(F)(F)F)cc35)SCC4)CC(C1)N2C(=O)/C=C/C(F)(F)F` [Example 440, (E)-10-(2,4-difluorophenyl)-7-(7-oxo-9-(4,4,4-trifluorobut-2-enoyl)-3,9-diazabicyclo[3.3.1]nonan-3-yl)-9-(trifluoromethyl)-2,3-dihydro-5H-[1,4]thiazino[2,3,4-ij]quinazolin-5-one], 96%.
For the compound `C=CC(=O)N1CCN(c2nc(=O)n3c4c(c(-c5ccc(F)cc5)c(C(F)(F)F)cc24)SC[C@@H]3CN2CCn3c(nnc3C(F)(F)F)C2)[C@@H](C)C1` [Example 430, (S)-7-((S)-4-acryloyl-2-methylpiperazin-1-yl)-10-(4-fluorophenyl)-9-(trifluoromethyl)-3-((3-(trifluoromethyl)-5,6-dihydro-[1,2,4]triazolo[4,3-a]pyrazin-7(8H)-yl)methyl)-2H-[1,4]thiazino[2,3,4-ij]quinazolin-5(3H)-one], the “% CAF @ 10 uM, 1h” value is given as 90.9%.
For the compound `C=CC(=O)N1C[C@H](C)N(c2nc(=O)n3c4c(c(-c5cc(Cl)c(F)cc5F)c(Cl)cc24)SC[C@@H]3CN2CCn3c(nnc3C(F)(F)F)C2)C[C@H]1C` [Example 448, (3S)-7-((2S,5R)-4-acryloyl-2,5-dimethylpiperazin-1-yl)-9-chloro-10-(5-chloro-2,4-difluorophenyl)-3-((3-(trifluoromethyl)-5,6-dihydro-[1,2,4]triazolo[4,3-a]pyrazin-7(8H)-yl)methyl)-2H-[1,4]thiazino[2,3,4-ij]quinazolin-5(3H)-one], the “% CAF @ 10 uM, 1h” value came to 55%.
Regarding `C=CC(=O)N1C[C@H](C)N(c2nc(=O)n3c4c(c(-c5cc(Cl)c(F)cc5F)c(Cl)cc24)SC[C@@H]3CN2CCN(C3CC3)CC2)C[C@H]1C` [Example 499, (3S)-7-((2S,5R)-4-acryloyl-2,5-dimethylpiperazin-1-yl)-9-chloro-10-(5-chloro-2,4-difluorophenyl)-3-((4-cyclopropylpiperazin-1-yl)methyl)-2H-[1,4]thiazino[2,3,4-ij]quinazolin-5(3H)-one], the “% CAF @ 10 uM, 1h” value was 28%.

Still in this assay, the particulars now being: 10 uM, 1 h; Table 3.
With `C=CC(=O)N1CCN(c2nc(=O)n3c4c(c(-c5ccc(F)cc5F)c(Cl)cc24)SCC3)[C@@H](CS(C)(=O)=O)C1` [Example 185, 7-((R)-4-acryloyl-2-((methylsulfonyl)methyl)piperazin-1-yl)-9-chloro-10-(2,4-difluorophenyl)-2,3-dihydro-5H-[1,4]thiazino[2,3,4-ij]quinazolin-5-one], the “% CAF @ 10 uM, 1h” value came out at 93.3%.
As to `C=CC(=O)N1CCN(c2nc(=O)n3c4c(c(-c5c(F)cc(F)cc5F)c(Cl)cc24)SC[C@@H]3CC2CCN(C)CC2)[C@@H](C)C1` [Example 92, (S)-7-((S)-4-acryloyl-2-methylpiperazin-1-yl)-9-chloro-3-((1-methylpiperidin-4-yl)methyl)-10-(2,4,6-trifluorophenyl)-2,3-dihydro-5H-[1,4]thiazino[2,3,4-ij]quinazolin-5-one], the “% CAF @ 10 uM, 1h” value was found to be 96.7%.
Same read-out and setting: the same measure for `C=CC(=O)N1CCN(c2nc(=O)n3c4c(c(-c5ccc(F)cc5F)c(Cl)cc24)SCC3CN2CCN(CC)CC2)[C@@H](C)C1` (stereo partly drawn) [Example 122, 7-((S)-4-acryloyl-2-methylpiperazin-1-yl)-9-chloro-10-(2,4-difluorophenyl)-3-((4-ethylpiperazin-1-yl)methyl)-2,3-dihydro-5H-[1,4]thiazino[2,3,4-ij]quinazolin-5-one]: 80.9%; for `C=CC(=O)N1[C@@H](C)CN(c2nc(=O)n3c4c(c(-c5ccc(F)cc5F)c(Cl)cc24)SCC3)C[C@@H]1C` [Example 156, 7-((3S,5S)-4-acryloyl-3,5-dimethylpiperazin-1-yl)-9-chloro-10-(2,4-difluorophenyl)-2,3-dihydro-5H-[1,4]thiazino[2,3,4-ij]quinazolin-5-one]: 0%.
With `C=CC(=O)N1CCN(c2nc(=O)n3c4c(c(-c5ccc(F)cc5F)c(C(F)(F)F)cc24)SCC3)C2CS(=O)(=O)CC21` (stereo not shown) [Example 100, 7-(4-acryloyl-6,6-dioxidohexahydrothieno[3,4-b]pyrazin-1(2H)-yl)-10-(2,4-difluorophenyl)-9-(trifluoromethyl)-2,3-dihydro-5H-[1,4]thiazino[2,3,4-ij]quinazolin-5-one], the “% CAF @ 10 uM, 1h” value amounted to 94%.
Same read-out and setting: the same measure for `C=CC(=O)N1C[C@H](C#N)N(c2nc(=O)n3c4c(c(-c5ccc(F)cc5F)c(Cl)cc24)SCC3)C[C@H]1C` [Example 161, (2R,5R)-4-acryloyl-1-(9-chloro-10-(2,4-difluorophenyl)-5-oxo-2,3-dihydro-5H-[1,4]thiazino[2,3,4-ij]quinazolin-7-yl)-5-methylpiperazine-2-carbonitrile]: 1%; for `C=CC(=O)N1C2CSCC1CN(c1nc(=O)n3c4c(c(-c5ccc(F)cc5F)c(Cl)cc14)SCC3)C2` [Example 129, 7-(9-acryloyl-3-thia-7,9-diazabicyclo[3.3.1]nonan-7-yl)-9-chloro-10-(2,4-difluorophenyl)-2,3-dihydro-5H-[1,4]thiazino[2,3,4-ij]quinazolin-5-one]: 95.3%.
Consider `C=CC(=O)N1CCN(c2nc(=O)n3c4c(c(-c5c(F)cc(Cl)cc5F)c(Cl)cc24)SCC3)[C@@H](C)C1` [Example 106, (S)-7-(4-acryloyl-2-methylpiperazin-1-yl)-9-chloro-10-(4-chloro-2,6-difluorophenyl)-2,3-dihydro-5H-[1,4]thiazino[2,3,4-ij]quinazolin-5-one], for which the “% CAF @ 10 uM, 1h” value was 45.2%.
The same measure, in the same setting: the same measure for `C=CC(=O)N1CCN(c2nc(=O)n3c4c(c(-c5ccc(F)cc5F)c(Cl)cc24)SCC3)C2CN(S(C)(=O)=O)CC21` (stereo not shown) [Example 118, 7-(4-acryloyl-6-(methylsulfonyl)octahydro-1H-pyrrolo[3,4-b]pyrazin-1-yl)-9-chloro-10-(2,4-difluorophenyl)-2,3-dihydro-5H-[1,4]thiazino[2,3,4-ij]quinazolin-5-one]: 48.3%.
In the case of `C=CC(=O)N1CCN(c2nc(=O)n3c4c(c(-c5ccc(F)cc5F)c(Cl)cc24)SCC3)CC12CNC2=O` (stereo not shown) [Example 128, 7-(5-acryloyl-1-oxo-2,5,8-triazaspiro[3.5]nonan-8-yl)-9-chloro-10-(2,4-difluorophenyl)-2,3-dihydro-5H-[1,4]thiazino[2,3,4-ij]quinazolin-5-one], the “% CAF @ 10 uM, 1h” value was found to be 62.7%.
Same read-out and setting: the same measure for `C=CC(=O)N1CCN(c2nc(=O)n3c4c(c(-c5ccc(F)cc5F)c(Cl)cc24)SCCC3)[C@@H](C)C1` [Example 102, 8-((S)-4-acryloyl-2-methylpiperazin-1-yl)-10-chloro-11-(2,4-difluorophenyl)-3,4-dihydro-2H,6H-[1,4]thiazepino[2,3,4-ij]quinazolin-6-one]: 95.4%.
`C=CC(=O)N1CCN(c2nc(=O)n3c4c(c(-c5ccc(F)cc5F)c(Cl)cc24)SCC3)C2CCC21` (stereo not shown) [Example 145, 7-(5-acryloyl-2,5-diazabicyclo[4.2.0]octan-2-yl)-9-chloro-10-(2,4-difluorophenyl)-2,3-dihydro-5H-[1,4]thiazino[2,3,4-ij]quinazolin-5-one]: the “% CAF @ 10 uM, 1h” value was 58%.

The assay is the same for the next values; noted with them: 10 μM, 1 h; Table 4.
Take `C=CC(=O)N1CCN(c2nc(=O)n3c4c(c(-c5ccc(F)cc5F)c(Cl)cc24)SC[C@@H]3CN2CCN(CC)CC2)[C@@H](C)C1` [Example 354, (3S)-7-((S)-4-acryloyl-2-methylpiperazin-1-yl)-9-chloro-10-(2,4-difluorophenyl)-3-((4-ethylpiperazin-1-yl)methyl)-2H-[1,4]thiazino[2,3,4-ij]quinazolin-5(3H)-one]: the “% CAF @ 10 μM, 1 h” value amounted to 96%.
Still for that read-out and setting: with `C=CC(=O)N1CCN(c2nc(=O)n3c4c(c(-c5ccc(F)cc5F)c(Cl)cc24)SC[C@H]3CN2CCN(CC)CC2)[C@@H](C)C1` [Example 346, (3R)-7-((S)-4-acryloyl-2-methylpiperazin-1-yl)-9-chloro-10-(2,4-difluorophenyl)-3-((4-ethylpiperazin-1-yl)methyl)-2H-[1,4]thiazino[2,3,4-ij]quinazolin-5(3H)-one] the figure was 79.3%.
On the same count and under the same terms, with `C=CC(=O)N1CCN(c2nc(=O)n3c4c(c(-c5ccc(F)cc5F)c(Cl)cc24)SC[C@H]3CCCN2C[C@@H]3C[C@H]2CO3)[C@@H](C)C1` [Example 341, (3R)-3-(3-((1S,4S)-2-oxa-5-azabicyclo[2.2.1]heptan-5-yl)propyl)-7-((S)-4-acryloyl-2-methylpiperazin-1-yl)-9-chloro-10-(2,4-difluorophenyl)-2H-[1,4]thiazino[2,3,4-ij]quinazolin-5(3H)-one] the figure was 96.5%.
